This note sets out measurements from ChEMBL document CHEMBL5727273, “Heteroaryldiazepine derivatives as RSV inhibitors” (2019).

Where only a bound is given, the exact number is not on record here.

The experiment can be described thus: RSV assay: Following extensive parameter testing, the final assay is run as follows: HEp-2 cells are seeded into the inner 60 wells of a 96-well plate at 8,000 cells per well in a volume of 50 μL using Growth Media (DMEM without phenol red, 1% L-Glut, 1% Penn/Strep, 1% nonessential amino acids, 10% FBS). 2-fold serial dilutions of control and test compounds are added to the wells in duplicate in a total volume of 25 μL. Viral stock is then added to the wells in a volume of 25 μL, bringing the total volume of each well to 100 μL. Each 96-well plate has a control column of 6 wells with cells and virus but no compound (negative control, max CPE), a column with cells but no compound or virus (positive control, minimum CPE), and a column with no cells or virus or compound (background plate/reagent control). The control wells with cells but no virus are given an additional 25 uL of growth media containing an equal quantity of sucrose as those wells receiving the viral stock in order to keep consistent in media and volume conditions. The outer wells of the plate are filled with 125 μL of growth media to act as a thermal and evaporative moat around the test wells. Following a 4-day incubation period, the plates are read using ATPlite (50 uL added per well), which quantifies the amount of ATP (a measure of cell health) present in each well. Assay plates are read using the Envision luminometer.

One may read the EC50 as the concentration that produces a half-maximal response. For the compound `O=C1Nc2ncccc2C(c2ccccc2)=NC1Nc1nnc(-c2ccc(F)cc2)o1` (centres undefined), the EC50 (HEp-2) was over 800 nM.

With `O=C(NC1N=C(c2ccccc2)c2ccsc2NC1=O)OCc1ccccc1` (centres undefined), it took 600 nM to reach a half-maximal effect (HEp-2) (EC50).

`NC1N=C(c2ccccc2)c2sccc2NC1=O` (centres undefined) had an EC50 (HEp-2) of 600 nM.

Compound `O=C1Nc2cccnc2C(c2ccccc2)=NC1Nc1nnc(-c2ccccc2)o1` (centres undefined) yielded an EC50 (HEp-2) of over 800 nM.

Compound `Cc1sc2c(c1C)C(c1ccccc1)=NC(Nc1nnc(-c3ncc(C(F)(F)F)cc3N3CCOCC3)o1)C(=O)N2` (centres undefined) showed an EC50 of over 800 nM. The same compound gave a concentration for a half-maximal effect (EC50) (HEp-2) of 600 nM.

`Cc1cc(C(=O)c2ccccc2)c(N)s1` had an EC50 of over 800 nM. Where the note is “HEp-2”, the 50% effective concentration (EC50) is under 400 nM.

`O=C1Nc2cnccc2C(c2ccccc2)=NC1Nc1nnc(-c2ccc(F)cc2)o1` (centres undefined): the EC50 (HEp-2) was over 800 nM.
